Literature values, collected in patent US20040224916A1 (priority 2003, published 2004).
Where two headings read alike, the source gives them in different places.

Key:
[1] = system: HIV-1; conditions: in vitro, with agents acting at steps other than reverse transcription, including recombinant soluble CD4, castanospermine, recombinant interferon-α
[2] = dogs and rhesus monkeys
[3] = system: HIV

Row | Compound | antiviral activity in combination [1] | stability in plasma [2] | effectiveness of S-configuration (at phosphorus) diastereomer relative to R-configuration diastereomer [3] | effectiveness relative to tenofovir against HIV in culture ([3]; as stated in b46) | effectiveness relative to tenofovir against HIV in culture ([3]; as stated in b47)
1 | Cc1cn([C@H]2C[C@H](N=[N+]=[N-])[C@@H](CO)O2)c(=O)[nH]c1=O [AZT, 3′-azido, 3′-deoxythymidine] | synergistic antiviral activity | – | – | – | –
2 | CC(C)OC(=O)[C@H](C)N[P@](=O)(CO[C@H](C)Cn1cnc2c(N)ncnc21)Oc1ccccc1 [GS-7340, 9-[(R)-2-[[(S)-[[(S)-1-(isopropoxycarbonyl)ethyl]amino]phenoxyphosphinyl]methoxy]propyl]adenine] | – | stable in plasma | 10 fold | 1000 times | 100 fold
